Like-named read-outs stand apart in the source and are kept apart here.
Legend:
[1] = system: A375 cells, a human melanoma cell line having the V600E mutant Braf; experiment: B-Raf cell-based assay (ratio of phospho-ERK1/2 to total ERK1/2); details: A-375, 1 h, P-ERK/total ERK, 60 minute incubation, read-out: IC50 for the inhibition of B-raf as measured by the cell-based assay
Method: A cell-based assay was optimized to assay the ability of compounds to inhibit Braf activity in a whole cell context. […] The cell-based assay quantifies the ratio of phospho-ERK1/2 to total ERK1/2 and can thereby assay the cellular inhibition of Braf kinase activity.
A375 cells are plated into 96 well plates and grown to confluence. The cells are then changed into starve media (DMEM/0.1% BSA) for 60 minutes. Compounds in DMSO dose curves are then diluted in starve media and added to cells. […] After a 60 minute incubation the cells are fixed for 20 minutes at room temperature in 4% formaldehyde with 0.1%Triton X-100, protease and phosphatase inhibitors in PBS. The cells are washed four times in PBS then blocked for 60 minutes using a one to one mix of Odyssey blocking buffer (Li-Cor Biosciences, Inc) and PBS. Primary antibodies (rabbit anti-phospho p42/p44 MAPK (P-ERK1/2) from Cell Signaling Technology and mouse anti-ERK2 from Santa Cruz Biotechnology) are diluted in blocking buffer, added to the cells and incubated overnight at 4° C. The cells are then washed four times in PBS/0.1% Tween-20. Secondary antibodies (anti-mouse IRDye 800CW from Rockland, Inc and anti-rabbit AlexaFlour680 from Molecular Probes) are diluted in blocking buffer/0.5% Tween and incubated on cells for 60 minutes. After 4 washes in PBS/0.1% Tween-20 the microplate is scanned on an Odyssey Infrared Imager (Li-Cor Bioscience) which can read the signal given by the two secondary antibodies on their respective channels. The ratio of P-ERK/total ERK is determined and IC50s generated using Excel-XLfit software.

recombinant HuBraf V600E = recombinant HuBraf V600E (Homo sapiens, UniProt P15056, V600E); experiment: B-raf Homogenous Time Resolved Fluorescent (HTRF) kinase assay; format: biochemical; details: substrate MEK1, 10 uM ATP; threshold lists; read-out: IC50 for the inhibition of B-raf as measured by the HTRF assay
Method: A Homogeneous Time Resolved Fluorescence (HTRF) kinase assay was established to assay the ability of compounds to inhibit human mutant Braf kinase activity on the substrate MEK1. […] The final concentration of the kinase reaction buffer is 50 mM Tris-HCL pH 7.5, 10 mM MgCl2, 0.5% glucose, 0.5 mM DTT, 0.01% BSA.
The detection reaction proceeds for one hour and is read on a RubyStar (BMG Labtech) counter. IC50s for the test compounds are generated using Excel-XLfit software.

recombinant HuBraf V600E, sequence (P15056 whole entry V600E): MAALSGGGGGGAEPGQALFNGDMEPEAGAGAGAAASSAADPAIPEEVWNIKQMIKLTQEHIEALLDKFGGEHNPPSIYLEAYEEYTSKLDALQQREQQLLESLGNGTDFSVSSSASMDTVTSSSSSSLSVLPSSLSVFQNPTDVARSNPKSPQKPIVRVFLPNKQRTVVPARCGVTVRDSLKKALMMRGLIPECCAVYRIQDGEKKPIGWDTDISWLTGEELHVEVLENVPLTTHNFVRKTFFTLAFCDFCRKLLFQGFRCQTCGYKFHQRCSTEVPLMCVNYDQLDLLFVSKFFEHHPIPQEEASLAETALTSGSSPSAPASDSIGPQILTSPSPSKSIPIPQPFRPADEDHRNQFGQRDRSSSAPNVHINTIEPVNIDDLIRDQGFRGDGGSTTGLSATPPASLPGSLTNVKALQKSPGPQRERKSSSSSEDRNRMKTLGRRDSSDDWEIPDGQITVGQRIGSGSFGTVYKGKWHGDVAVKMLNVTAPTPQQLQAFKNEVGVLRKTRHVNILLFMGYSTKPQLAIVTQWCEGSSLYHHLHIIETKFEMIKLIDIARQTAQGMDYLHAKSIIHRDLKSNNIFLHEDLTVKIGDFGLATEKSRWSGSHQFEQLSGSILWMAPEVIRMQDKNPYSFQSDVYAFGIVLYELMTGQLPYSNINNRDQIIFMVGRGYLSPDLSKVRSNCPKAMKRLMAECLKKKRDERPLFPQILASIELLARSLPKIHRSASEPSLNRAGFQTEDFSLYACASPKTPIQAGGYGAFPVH

IC50 ([1]; threshold list)	IC50 (recombinant HuBraf V600E)	IC50 ([1]; threshold lists)	SMILES
≤ 500 nM	≤ 1000 nM	–	CNc1cc(-c2cccnc2Nc2c(C)ccc3c(Nc4ccc5c(c4)NCCC5(C)C)nccc23)ncn1 [Example 72, N^1-(4,4-dimethyl-1,2,3,4-tetrahydro-7-quinolinyl)-6-methyl-N^5-(3-(6-(methylamino)-4-pyrimidinyl)-2-pyridinyl)-1,5-isoquinolinediamine]
≤ 500 nM	≤ 250 nM	–	CNc1ncc2cc(-c3c(C)ccc4c(Nc5cccc(OC(C)C)c5)n[nH]c34)ccc2n1 [Example 78, N-methyl-6-(6-methyl-3-((3-((1-methylethyl)oxy)phenyl)amino)-1H-indazol-7-yl)-2-quinazolinamine]
≤ 500 nM	≤ 250 nM	–	CNc1ncc2cc(-c3c(C)ccc4c(Nc5ccc6c(c5)NCC6(C)C)nccc34)ccc2n1 [Example 79, 6-(1-((3,3-dimethyl-2,3-dihydro-1H-indol-6-yl)amino)-6-methyl-5-isoquinolinyl)-N-methyl-2-quinazolinamine]
≤ 500 nM	≤ 250 nM	–	Cc1ccc2c(Nc3ccc4c(c3)NCC4(C)C)nccc2c1Nc1ncccc1-c1ccncn1 [Example 80, N^1-(3,3-dimethyl-2,3-dihydro-1H-indol-6-yl)-6-methyl-N^5-(3-(4-pyrimidinyl)-2-pyridinyl)-1,5-isoquinolinediamine]
≤ 500 nM	≤ 250 nM	–	CNc1ncc2cc(-c3c(C)ccc4c(Nc5ccc6c(c5)NCC6(C)C)ncnc34)ccc2n1 [Example 81, N^4′-(3,3-dimethyl-2,3-dihydro-1H-indol-6-yl)-N^2,7′-dimethyl-6,8′-biquinazoline-2,4′-diamine]
≤ 500 nM	≤ 250 nM	≤ 1000 nM	CNc1ncc2cc(-c3c(C)ccc4c(Nc5ccc(C)c(F)c5)nn(C)c34)ccc2n1 [Example 198]
≤ 500 nM	≤ 250 nM	≤ 1000 nM	CNc1ncc2cc(-c3c(C)ccc4c(Nc5ccc(-n6ccnc6)cc5)nn(C)c34)ccc2n1 [Example 204]
–	≤ 250 nM	≤ 5000 nM	CNc1cc(-c2cccnc2Nc2c(C)ccc3c(Nc4cccc(C(F)(F)F)c4)ncnc23)ncn1 [Example 337, 7-methyl-N8-(3-(6-(methylamino)pyrimidin-4-yl)pyridin-2-yl)-N4-(3-(trifluoromethyl)phenyl)quinazoline-4,8-diamine]
≤ 500 nM	≤ 250 nM	–	CNc1cc(-c2cccnc2Nc2c(C)ccc3c(Nc4cccc(OC(F)(F)F)c4)ncnc23)ncn1 [Example 343]
–	≤ 500 nM	≤ 5000 nM	Cc1ccc(C(F)(F)F)cc1Nc1nccc2c(Nc3ncccc3-c3ncnc4[nH]ccc34)c(C)ccc12 [Example 346]
–	≤ 250 nM	≤ 5000 nM	CNc1cc(-c2cccnc2Nc2c(C)ccc3c(Nc4ccc(Cl)c(C)c4)nccc23)ncn1 [Example 352]
≤ 500 nM	≤ 250 nM	–	CNc1ncc2cc(-c3c(C)sc4c(Nc5ccc(OC)c(C(F)(F)F)c5)nccc34)ccc2n1 [Example 392, 6-(7-(4-methoxy-3-(trifluoromethyl)phenylamino)-2-methylthieno[2,3-c]pyridin-3-yl)-N-methylquinazolin-2-amine]
–	≤ 250 nM	≤ 5000 nM	CNc1ncc2cc(-c3c(C)sc4c(Nc5cccc(C(F)(F)F)c5)nccc34)ccc2n1 [Example 393, N-methyl-6-(2-methyl-7-(3-(trifluoromethyl)phenylamino)thieno[2,3-c]pyridin-3-yl)quinazolin-2-amine]
≤ 500 nM	≤ 250 nM	–	CNc1ncc2cc(-c3c(C)ccc4c(Oc5cccc(C(F)(F)F)c5)nccc34)ccc2n1 [Example 395, N-methyl-6-(6-methyl-1-(3-(trifluoromethyl)phenoxy)isoquinolin-5-yl)quinazolin-2-amine]
≤ 500 nM	≤ 250 nM	–	CNc1ncc2cc(-c3c(C)ccc4c(Nc5cccc(C(F)(F)F)c5)nsc34)ccc2n1 [Example 398, N-methyl-6-(6-methyl-3-(3-(trifluoromethyl)phenylamino)benzo[d]isothiazol-7-yl)quinazolin-2-amine]
≤ 500 nM	≤ 250 nM	–	CNc1ncc2cc(-c3c(C)ccc4c(Nc5ccc(OC)c(C(F)(F)F)c5)nsc34)ccc2n1 [Example 399, 6-(3-(4-methoxy-3-(trifluoromethyl)phenylamino)-6-methylbenzo[d]isothiazol-7-yl)-N-methylquinazolin-2-amine]
≤ 500 nM	≤ 1000 nM	–	CNc1ncc2cc(-c3c(C)cnc4c(Nc5ccc(OC)c(C(F)(F)F)c5)nccc34)ccc2n1 [Example 410]
